According to patent publication US11697646B2, “Triazole N-linked carbamoyl cyclohexyl acids as LPA antagonists” (BRISTOL-MYERS SQUIBB COMPANY, priority 2017, dated 2023):
Where a name gives a salt, the structure may show the parent alone.

Target: T1, human LPA1 (Homo sapiens, UniProt Q92633)
T1 construct: expressed in transfected cells; host or cells: Chinese hamster ovary (CHO) cells
Assay: LPA1 functional antagonist assay (calcium flux)
Type: cell-based
Conditions: CHO cells overexpressing human LPA1; calcium flux induced by 10 nM LPA; read-out: hLPA1 IC50
Procedure: The effectiveness of compounds of the present invention as LPA1 inhibitors can be determined in an LPA1 functional antagonist assay as follows:
The cells were then equilibrated to room temperature for 30 minutes before the assay. […] IC50 values were determined by fitting data to a 4-parameter logistic equation (GraphPad Prism, San Diego Calif.).

T1 sequence (Q92633 whole entry): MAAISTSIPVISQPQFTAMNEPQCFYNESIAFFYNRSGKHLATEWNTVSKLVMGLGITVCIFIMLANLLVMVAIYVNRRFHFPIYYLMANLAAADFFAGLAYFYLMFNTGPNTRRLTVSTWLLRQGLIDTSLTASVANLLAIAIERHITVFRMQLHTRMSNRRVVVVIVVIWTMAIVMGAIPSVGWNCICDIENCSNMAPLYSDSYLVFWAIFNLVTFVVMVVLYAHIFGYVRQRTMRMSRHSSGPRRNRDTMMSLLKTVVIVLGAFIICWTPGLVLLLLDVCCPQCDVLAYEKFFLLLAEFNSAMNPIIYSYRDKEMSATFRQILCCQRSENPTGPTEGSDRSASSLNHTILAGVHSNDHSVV

Structure (SMILES) | IC50 [nM]
Cc1nc(-c2nnn(C)c2NC(=O)OCC2CC2)ccc1O[C@H]1CCC[C@H](C(=O)O)C1 [Example 74, (1S,3S)-3-((6-(5-(((cyclopropyl-methoxy)carbonyl)amino)-1-methyl-1H-1,2,3-triazol-4-yl)-2-methyl-pyridin-3-yl)oxy)cyclohexane-1-carboxylic acid] | 14
Cn1nnc(-c2ccc(O[C@H]3CCC[C@H](C(=O)O)C3)c(C(F)(F)F)n2)c1CNC(=O)OC1CCCC1 [Example 96] | 33
Cc1nc(-c2nnn(C)c2CNC(=O)N(C)[C@@H](C)c2ccccc2)ccc1O[C@H]1CCC[C@H](C(=O)O)C1 [Example 132, (1S,3S)-3-((2-methyl-6-(1-methyl-5-((3-methyl-3-((S)-1-phenylethyl)ureido)methyl)-1H-1,2,3-triazol-4-yl)pyridin-3-yl)oxy)cyclohexane-1-carboxylic acid] | 276
CCCCOC(=O)NCc1c(-c2ccc(O[C@H]3CCC[C@H](C(=O)O)C3)c(C(F)F)n2)nnn1C [Example 100, (1S,3S)-3-((6-(5-(((butoxycarbonyl)amino)methyl)-1-methyl-1H-1,2,3-triazol-4-yl)-2-(difluoromethyl)pyridin-3-yl)oxy)cyclohexane-1-carboxylic acid] | 39
COCc1nc(-c2nnn(C)c2CNC(=O)OCc2ccccc2)ccc1O[C@H]1CCC[C@H](C(=O)O)C1 [Example 102, (1S,3S)-3-((6-(5-((((benzyloxy)carbonyl)amino)methyl)-1-methyl-1H-1,2,3-triazol-4-yl)-2-(methoxy-methyl)pyridin-3-yl)oxy)cyclohexane-1-carboxylic acid] | 30
CC(C)COC(=O)Nc1c(-c2ccc(O[C@H]3CCC[C@H](C(=O)O)C3)cn2)nnn1C [Example 87, (1S,3S)-3-((6-(5-((isobutoxy-carbonyl)amino)-1-methyl-1H-1,2,3-triazol-4-yl)pyridin-3-yl)oxy)cyclohexane-1-carboxylic acid] | 219
CCCCOC(=O)N(C)Cc1c(-c2ccc(O[C@H]3CCC[C@H](C(=O)O)C3)c(C)n2)nnn1C [Example 36, (1S,3S)-3-((6-(5-(((butoxycarbonyl)(methyl)amino)methyl)-1-methyl-1H-1,2,3-triazol-4-yl)-2-methyl-pyridin-3-yl)oxy)cyclohexane carboxylic acid] | 19
CCCCNC(=O)NCc1c(-c2ccc(O[C@H]3CCC[C@H](C(=O)O)C3)c(CC)n2)nnn1C [Example 151, (1S,3S)-3-((6-(5-((3-butyl-ureido)methyl)-1-methyl-1H-1,2,3-triazol-4-yl)-2-ethylpyridin-3-yl)oxy)cyclohexane-1-carboxylic acid] | 647
Cn1nnc(-c2ccc(O[C@H]3CCC[C@H](C(=O)O)C3)cn2)c1CNC(=O)OCC1(C)CC1 [Example 52, (1S,3S)-3-((6-(1-methyl-5-(((((1-methylcyclopropyl)methoxy)carbonyl)amino)methyl)-1H-1,2,3-triazol-4-yl)pyridin-3-yl)oxy)cyclohexane-1-carboxylic acid] | 81
CCCC1(COC(=O)NCc2c(-c3ccc(O[C@H]4CCC[C@H](C(=O)O)C4)cn3)nnn2C)CC1 [Example 50, (1S,3S)-3-((6-(1-methyl-5-(((((1-propylcyclopropyl)methoxy)carbonyl)amino)methyl)-1H-1,2,3-triazol-4-yl)pyridin-3-yl)oxy)cyclohexane-1-carboxylic acid] | 28
Cc1nc(-c2nnn(C)c2CNC(=O)OCCc2ccccc2)ccc1O[C@H]1CCC[C@H](C(=O)O)C1 [Example 16, (1S,3S)-3-((2-methyl-6-(1-methyl-5-(((phenethoxycarbonyl)amino)methyl)-1H-1,2,3-triazol-4-yl)pyridin-3-yl)oxy)cyclohexane-1-carboxylic acid] | 32
Cc1nc(-c2nnn(C)c2CNC(=O)NC2CC3CCC2C3)ccc1O[C@H]1CCC[C@H](C(=O)O)C1 (stereo partly drawn) [Example 117, (1S,3S)-3-((6-(5-((3-(bicyclo [2.2.1]heptan-2-yl)ureido)methyl)-1-methyl-1H-1,2,3-triazol-4-yl)-2-methylpyridin-3-yl)oxy)cyclohexane-1-carboxylic acid] | 420
Cc1nc(-c2nnn(C)c2CNC(=O)OCCCF)ccc1O[C@H]1CCC[C@H](C(=O)O)C1 [Example 55, (1S,3S)-3-((6-(5-((((3-fluoropropoxy)carbonyl)amino)methyl)-1-methyl-1H-1,2,3-triazol-4-yl)-2-methylpyridin-3-yl)oxy)cyclohexane-1-carboxylic acid] | 411
Cc1nc(-c2nnn(C)c2CNS(=O)(=O)N(C)Cc2ccccc2)ccc1O[C@H]1CCC[C@H](C(=O)O)C1 [Example 139, (1S,3S)-3-((6-(5-(((N-benzyl-N-methylsulfamoyl)amino)methyl)-1-methyl-1H-1,2,3-triazol-4-yl)-2-methylpyridin-3-yl)oxy)cyclohexane-1-carboxylic acid] | 313
CCCN(C)C(=O)NCc1c(-c2ccc(O[C@H]3CCC[C@H](C(=O)O)C3)c(C)n2)nnn1C [Example 110, (1S,3S)-3-((2-methyl-6-(1-methyl-5-((3-methyl-3-propylureido)methyl)-1H-1,2,3-triazol-4-yl)pyridin-3-yl)oxy)cyclohexanecarboxylic acid] | 217
CCc1nc(-c2nnn(C)c2CNC(=O)OCC(C)(C)C)ccc1O[C@H]1CCC[C@H](C(=O)O)C1 [Example 45, (1S,3S)-3-((2-ethyl-6-(1-methyl-5-((((neopentyloxy)carbonyl)amino)methyl)-1H-1,2,3-triazol-4-yl)pyridin-3-yl)oxy)cyclohexane-1-carboxylic acid] | 94
CCCCCCOC(=O)NCc1c(-c2ccc(O[C@H]3CCC[C@H](C(=O)O)C3)c(C)n2)nnn1C [Example 20, (1S,3S)-3-((6-(5-((((hexyloxy)carbonyl)amino)methyl)-1-methyl-1H-1,2,3-triazol-4-yl)-2-methyl-pyridin-3-yl)oxy)cyclohexane-1-carboxylic acid] | 3
CCCCOC(=O)NCc1c(-c2ccc(O[C@H]3CCC[C@H](C(=O)O)C3)cn2)nnn1C [Example 5, (1S,3S)-3-((6-(5-(((butoxycarbonyl)amino)methyl)-1-methyl-1H-1,2,3-triazol-4-yl)pyridin-3-yl)oxy)cyclohexane-1-carboxylic acid] | 96
Cc1nc(-c2nnn(C)c2CNC(=O)OC[C@@H]2CC2(F)F)ccc1O[C@H]1CCC[C@H](C(=O)O)C1 [Example 208, (1S,3S)-3-((6-(5-((((((S)-2,2-difluorocyclopropyl)methoxy)carbonyl)amino)methyl)-1-methyl-1H-1,2,3-triazol-4-yl)-2-methylpyridin-3-yl)oxy)cyclohexane-1-carboxylate diethylammonium salt] | 57
Cc1nc(-c2nnn(C)c2CNC(=O)NCCC(C)C)ccc1O[C@H]1CCC[C@H](C(=O)O)C1 [Example 122, (1S,3S)-3-((6-(5-((3-isopentyl-ureido)methyl)-1-methyl-1H-1,2,3-triazol-4-yl)-2-methylpyridin-3-yl)oxy)cyclohexane-1-carboxylic acid] | 101
CCC1(COC(=O)NCc2c(-c3ccc(O[C@H]4CCC[C@H](C(=O)O)C4)c(C)n3)nnn2C)CCC1 [Example 57, (1S,3S)-3-((6-(5-(((((1-ethylcyclobutyl)methoxy)carbonyl)amino)methyl)-1-methyl-1H-1,2,3-triazol-4-yl)-2-methylpyridin-3-yl)oxy)cyclohexane-1-carboxylic acid] | 68
Cc1nc(-c2nnn(C)c2CNC(=O)NCc2ccccc2)ccc1O[C@H]1CCC[C@H](C(=O)O)C1 [Example 112, (1S,3S)-3-((6-(5-((3-benzylureido)methyl)-1-methyl-1H-1,2,3-triazol-4-yl)-2-methylpyridin-3-yl)oxy)cyclohexane-1-carboxylic acid] | 63
Cn1nnc(-c2ccc(O[C@H]3CCC[C@H](C(=O)O)C3)cn2)c1NC(=O)OC1CCCC1 [Example 90, (1S,3S)-3-((6-(5-(((cyclopentyloxy)carbonyl)amino)-1-methyl-1H-1,2,3-triazol-4-yl)pyridin-3-yl)oxy)cyclohexane-1-carboxylic acid] | 149
CCC(C)CNC(=O)NCc1c(-c2ccc(O[C@H]3CCC[C@H](C(=O)O)C3)c(C)n2)nnn1C (mixture of isomers) [Example 118, (1S,3S)-3-((2-methyl-6-(1-methyl-5-((3-(2-methylbutyl)ureido)methyl)-1H-1,2,3-triazol-4-yl)pyridin-3-yl)oxy)cyclo-hexane-1-carboxylic acid] | 105

Same assay, conditions: human LPA1 functional antagonist assay; read-out: hLPA1 IC50

Structure (SMILES) | IC50 [nM]
Cc1nc(-c2nnn(C)c2CNC(=O)OCCC(C)(F)F)ccc1O[C@H]1CCC[C@H](C(=O)O)C1 [Example 202, (1S,3S)-3-((6-(5-((((3,3-difluorobutoxy)carbonyl)amino)methyl)-1-methyl-1H-1,2,3-triazol-4-yl)-2-methylpyridin-3-yl)oxy) cyclo-hexane-1-carboxylic acid] | 86
Cc1nc(-c2nnn(C)c2CNC(=O)OC2CCC2)ccc1O[C@H]1CCC[C@H](C(=O)O)C1 [Example 177, (1S,3S)-3-((6-(5-(((cyclobutoxycarbonyl)amino)methyl)-1-methyl-1H-1,2,3-triazol-4-yl)-2-methyl-pyridin-3-yl)oxy)cyclohexane-1-carboxylic acid] | 148
CCC[C@@H](C)OC(=O)NCc1c(-c2ccc(O[C@H]3CCC[C@H](C(=O)O)C3)c(C)n2)nnn1C [Example 171, (1S,3S)-3-((2-methyl-6-(1-methyl-5-((((((R)-pentan-2-yl)oxy)carbonyl)amino)methyl)-1H-1,2,3-triazol-4-yl)pyridin-3-yl)oxy)cyclohexane-1-carboxylic acid] | 76
Cc1nc(-c2nnn(C)c2CNC(=O)OCC(C)C2CC2)ccc1O[C@H]1CCC[C@H](C(=O)O)C1 (stereo partly drawn) [Example 184, (1S,3S)-3-((6-(5-((((2-cyclopropylpropoxy)carbonyl)amino)methyl)-1-methyl-1H-1,2,3-triazol-4-yl)-2-methylpyridin-3-yl)oxy)cyclo-hexane-1-carboxylic acid] | 41
